Reference: Sander's compilation of Henry's law constants (doi:10.1136/oem.36.3.231)

Test: Henry solubility constant Hcp at 310 K (mol/(m3 Pa))
Conditions: reference: Sato and Nakajima (1979a)

Compared with `CC(=O)CC(C)C` [4-methyl-2-pentanone], `CCCC(C)=O` [2-pentanone] is higher in “Henry solubility constant Hcp at 310 K” value: 0.031 for the first, 0.064 for the second.

First: C=CCc1ccccc1 [2-propenylbenzene]
Second: CCc1ccccc1 [ethylbenzene]
The “Henry solubility constant Hcp at 310 K” value of the first is higher: 0.0014 for the first, 0.00066 for the second.

Going from `C=Cc1ccccc1` [ethenylbenzene] to `Cc1ccccc1` [methylbenzene], the “Henry solubility constant Hcp at 310 K” value falls from 0.0018 to 0.00086.

Compared with `CCCCCC(C)=O` [2-heptanone], `CCCCC(C)=O` [2-hexanone] is higher in “Henry solubility constant Hcp at 310 K” value: 0.037 for the first, 0.043 for the second.

Going from `Cc1ccccc1C` [1,2-dimethylbenzene] to `Cc1cccc(C)c1` [1,3-dimethylbenzene], the “Henry solubility constant Hcp at 310 K” value falls from 0.001 to 0.00064.

Going from `CCC(=O)CC` [3-pentanone] to `CC(C)=O` [propanone], the “Henry solubility constant Hcp at 310 K” value rises from 0.07 to 0.15.

Going from `c1ccccc1` [benzene] to `CC(C)c1ccccc1` [(2-propyl)-benzene], the “Henry solubility constant Hcp at 310 K” value falls from 0.0011 to 0.00056.

Going from `CCCc1ccccc1` [propylbenzene] to `Cc1ccc(C)cc1` [1,4-dimethylbenzene], the “Henry solubility constant Hcp at 310 K” value rises from 0.0005 to 0.00061.
